Test results: ChEMBL document CHEMBL1150437, “Synthesis and neuraminidase inhibition studies of 4-azido, amino, and acetamido substituted sialosides” (Bioorg Med Chem Lett, 1994)

Test system: unidentified influenza virus
Assay: Compound was tested for inhibition of Influenza neuraminidase
Type: functional, organism-based

SMILES	Ki [µM]
CC(=O)N[C@H]1[C@H]([C@H](O)[C@H](O)CO)O[C@@](OC[C@@H]2O[C@H](O)[C@@H](O)[C@@H](O)[C@H]2O)(C(=O)O)C[C@H]1N	150
CC(=O)NC1C(N)CC(SC(C)C2OC(O)C(O)C(O)C2O)(C(=O)O)OC1[C@H](O)[C@H](O)CO (some centres not stated)	50
